Laboratory results published in patent US5871779A, “Treatment of arthropathies with vanadate compounds or analogues thereof” (Mount Sinai Hospital Corporation, priority 1996, dated 1999).
Where “and” joins values, the source holds several entries; their conditions need not be identical. Equal values may be shown once.

How the values were obtained:
Lewis lung = test: MTT cytotoxicity assay, Lewis lung; assay type: cell-based, murine; details: 72 hours
Method: (§1) The relative cytotoxicity of various compounds on tumor cell lines was investigated as follows. Cytotoxicity was measured by the MTT microculture tetrazolium colorimetric assay for all cell lines. The relative cytotoxicity of Na3 VO4 and VOSO4 was investigated using the following tumor cell lines: P388(WT) murine leukemia, P388 (ADR) murine leukemia, Lewis murine lung, MCF7 (WT) human breast, […] human lung, K562 human erythroleukemia, A431 human epidermal, LS180 human colon and SK-OV-3 human ovarian. The relative cytotoxicity of doxorubicin, Na3 VO4 and VOSO4 was investigated using the following tumor cell lines: P388(WT) murine leukemia, P388 (ADR) murine leukemia, MCF7(WT) human breast and MCF7 (ADR) human breast. The relative cytotoxicity of BMOV, BEOV and naglivan was investigated using the following tumor cell lines: P388(WT) murine leukemia, P388 (ADR) murine leukemia, Lewis murine lung, H460 human lung, K562 human erythroleukemia, and SK-OV-3 human ovarian.
(§2) The cells were plated (number of cells/well was different from cell line to cell depending on the dividing rate) in a 96-well microculture plate 24 hours prior to the delivery of the vanadium compounds. Serial concentrations of solutions of the test compounds (0.05-100 μM) were delivered to the corresponding wells. A blank column (without cells) and a control column (with cells without vanadium) were left. The cells were incubated for 72 hours continuously. An MTT solution was added to each well after this incubation period and the cells were incubated for 4 more hours for the completion of the dyeing process. The medium was removed find DMSO was added to each well. The absorbance of each well was read with a Titertek Multiskan (310C) spectrophotometer at 570 nm. The percentage of the absorbance of each vanadium concentration relative to the control calculated and the value of the 50% growth inhibition concentration (IC50) was obtained from the % control versus concentration plot. Each assay was repeated three times and the reported IC50 values were the mean of these three runs.

collagenase = collagenase production by chondrocytes (ELISA); assay type: cell-based, bovine; details: summary statement
Method: The effect of orthovanadate and N-acetylcysteine on fos, jun and collagenase expression were examined. Bovine articular chondrocytes were isolated and plated as previously described (Kandel R. A. et al. Biochim. Biophys. Acta. 1053, 130-134, 1990). In order to determine the effect of orthovanadate on IL 1 and PMA (phorbol ester) induced responses, chondrocytes were incubated with orthovanadate (100 μM) for 2 hours before stimulation with IL 1 (10 ng/ml) or PMA ([…]). Collagenase production was determined by incubating chondrocytes for 24 hours with IL 1 or PMA and the cell conditioned medium was assayed for collagenase activity using an ELISA procedure as described previously (Kandel et al. supra). PLA2 activity was measured by incorporating ^3 H-arachidonic acid (^3 H-AA) into the cells and then incubating the cells with medium containing 1 mg/ml BSA, either alone or in the presence of IL 1 or PMA, for 10 min. as previously described (Conquer, J. A. […], Biochim. Biophys. Acta. 1134, 1-6). The amount of ^3 H-AA liberated into the supernatant was determined. To measure PGE2 production, chondrocytes were incubated for 6 hours in Ham's F12 medium, either alone or with IL 1 or PMA. The supernatant was analyzed by RIA using an antibody specific for PGE2 (Dr. S. A. Jones, Mount Sinai Hospital, Toronto, Canada). In order to examine the expression of c-fos and c-jun, chondrocytes were incubated for 1 hour in the presence of IL-1, PMA or AA (3 μM). Chondrocytes were washed in PBS and the total RNA extracted as previously described (Cruz. et al, 1991, Biochem. J. 277, 327-330). RNA samples were run on formaldehyde agarose gels and transferred to nylon membrane for northern analysis using cDNA probes for c-fos and c-jun.

K562 = test: MTT cytotoxicity assay, K562; assay type: cell-based, human; details: K562, 72 hours
Method: as §1
as §2, with “Serial concentrations of solutions of the test compounds (0.05-100 μM) were delivered to the corresponding wells.” left out

P388 (WT) = test: MTT cytotoxicity assay, P388 (WT); assay type: cell-based, murine; details: P388 (WT), 72 hours; read-out: IC50 Value
Method: as §1, §2

SK-OV-3 = test: MTT cytotoxicity assay, SK-OV-3; assay type: cell-based, human; details: SK-OV-3, 72 hours
Method: as §1, §2

[1] = body weight of mice, BEOV and N-acetylcysteine (Example 21); assay type: in vivo; set-up: Body weight / Body weight, Average: unit not given here; details: for Body weight: individual mice; for death of animal: mouse 5
Method: (§3) Forty mice were subcutaneously injected with 100 μl of MDAY-2D tumor cell suspension (8×10^6 /100 μl)on day 1. On day 6, the mice were randomly divided into […] groups and injected following drugs twice a day. The […] groups were as follows: Group 1: 100 μl of PBS; Group 2: 100 μl of 2% NAC(ip) and 0.1 mg BEOV in 100 μl BS; Group 3: 100 μl of 2% NAC(ip) and 0.25 mg BEOV in 100 μl PBS; and Group 4: 100 μl of 2% NAC(ip) and 0.5 mg BEOV in 100 μl PBS. On injection day 9, the mice were sacrificed and the tumors dissected.

P388 (ADR) = test: MTT cytotoxicity assay, P388 (ADR); assay type: cell-based, murine; details: P388 (ADR), 72 hours; read-out: IC50 Value
Method: as §1, §2

MDAY-2D tumor [2] = test: BEOV and N-acetylcysteine on tumor growth (Example 21); assay type: in vivo, mice; set-up: unit not given here; details: for Tumour weight: individual mice
Method: The effectiveness of BEOV in reducing tumor growth was investigated and the effective concentration required for inhibiting tumor growth was determined as follows.
as §3

[3] = test system: proliferating chondrocytes; test: viability / proliferation of proliferating chondrocytes (low cell density); assay type: cell-based; details: summary statement
Method: In order to compare the effect of orthovanadate on non-proliferating and proliferating chondrocytes, chondrocytes were plated at both high cell density (2×10^6 to 4×10^6 cells/per well on a six well plate) (nonproliferating) and at a lower cell density (5×10^5 to 1×10^6 cells/per well on a six well plate) (proliferating) and then maintained for 48 hours. The cells were then incubated in media (HAMS F12) containing 0-50 μM Orthovanadate for an additional 48 hours. The cells were harvested and the number of viable cells determined.

H460 = test: MTT cytotoxicity assay, H460; assay type: cell-based, human; details: H460, 72 hours
Method: as §1, §2

carcinogenesis = details: G. Shklar et al.; cited from earlier work
MDAY-2D tumor [4] = test: ammonium bisvanadate and N-acetylcysteine on tumor growth (Example 22); assay type: in vivo, mice; set-up: Tumour weight: unit not given here; details: for Tumour weight: individual mice
Method: Forty mice were subcutaneously injected with MDAY-2D tumor cells (8×10^5 /100 μl) on day 1. On day 6, the mice were randomly divided into six groups and injected with the following drugs twice a day: Group 1: 100 μl of PBS; Group 2: 100 μl of 2% NAC(ip) and 0.1 mg ammonium bisvanadate in 100 μl PBS; Group 3: 100 μl of 2% NAC(ip) and 0.25 mg ammonium bisvanadate in 100 μl PBS; Group 4;100 μl of 2% NAC(ip) and 0.5 mg ammonium bisvanadate in 100 μl PBS; Group 5: 100 μl of 2% NAC (ip) and 0.75 mg ammonium bisvanadate in 100 μl PBS and; Group 6: 100 μl of 2% NAC (ip) and 1.0 mg ammonium bisvanadate.
On injection day 11 the mice were sacrificed and the tumors dissected. […] The effective concentrations of the vanadate complexes are from 0.25mg/100 μl and 0.5 mg/100 μl.

MDAY-D2 tumor = MDAY-D2 tumor growth in vivo, orthovanadate, vanadyl sulphate, vanadyl hydroperoxide (Example 6B); set-up: species or system mice
Description: In order to examine the ability of vanadyl compounds to reduce tumor formation, growth and metastases, a specific animal model which allows investigation of all of these processes in the same animal was chosen. This model involves the injection of a metastatic haematopoietic cell line, MDAY-D2, into mice subcutaneously. These cells form a tumor at the site of injection and its size can be easily determined. In addition, these cells metastasize to the liver and metastases can be detected histologically after day 17 to 19. This model provides a very sensitive and reproducible approach to investigate the effect of vanadyl compounds on tumor growth and metastases.
In a separate experiment using the same animal model, the effect of orthovanadate, vanadyl sulphate and vanadyl hydroperoxide administration on tumor growth in vivo was examined. On Day 1, 20 mice were injected with 2×10^5 MDAY-D2 cell subcutaneously. The mice were divided into four groups of five mice. At day 5, the animals were injected subcutaneously with 50 μl of water alone or containing 10 mg/ml of orthovanadate, 10 mg/ml of vanadyl sulphate, or 10 mg/ml of vanadyl hydroperoxide. This treatment was continued daily for 16 days. At day 21, the mice were sacrificed and the tumors dissected and weighed.

MDAY-D2 cells = test: viability of MDAY-D2 cells; assay type: cell-based, mouse; details: 0-50 μM, 48 hours, three forms compared
Method: Fos and jun activity are also required for cellular proliferation in many tumor cell lines. Accordingly, the effect of orthovanadate on adherent cells and cell suspensions were examined. MDAY-D2 (a mouse lymphoid cell line grown in suspension) and HTB14 cells (an adherent human primary astrocytoma cell line) were incubated in media containing 0-50 μM orthovanadate for 48 hours. The cells were harvested and the number of viable cells determined.
Three different forms of vanadyl compounds were examined for their effect on viability of cancer cell lines. MDAY-D2 cells were incubated in media containing 0-50 μM orthovanadate, vanadyl sulphate, or vanadyl hydroperoxide for 48 hours. The cells were harvested and the number of viable cells determined. […] Although there were slight differences in sensitivity, the overall cell death was similar.

CCc1occc(=O)c1[O][V](=[O])[O]c1c(CC)occc1=O [BEOV, bis(ethylmaltolato) oxovanadium]
IC50 (Lewis lung): 97.4 µM | production of metalloproteases, such as collagenase (collagenase): inhibit | IC50 (K562): 374 µM | IC50 (P388 (WT)): 82.6 µM | IC50 (SK-OV-3): 2.6 µM | Body weight, Average ([1]; 0.1 mg BEOV + 2% NAC): 16.5 | Body weight ([1]; 0.1 mg BEOV + 2% NAC): 17.8 and 15.5 and 15.9 and 16.8 | death of animal ([1]; 0.1 mg BEOV + 2% NAC): died | Body weight, Average ([1]; 0.25 mg BEOV + 2% NAC): 16.02 | Body weight ([1]; 0.25 mg BEOV + 2% NAC): 15.9 and 15.7 and 16.9 and 15.4 and 16.2 | Body weight, Average ([1]; 0.5 mg BEOV + 2% NAC): 15.25 | Body weight ([1]; 0.5 mg BEOV + 2% NAC): 13.7 and 13.9 and 16 and 17.4 | death of animal ([1]; 0.5 mg BEOV + 2% NAC): died | IC50 (P388 (ADR)): 39.8 µM | Tumour weight, Average (MDAY-2D tumor [2]; 0.1 mg BEOV + 2% NAC): 0.82 | Tumour weight (MDAY-2D tumor [2]; 0.1 mg BEOV twice a day + 2% NAC ip): 0.9 and 0.6 and 0.8 and 1.0 | Tumour weight, Average (MDAY-2D tumor [2]; 0.25 mg BEOV + 2% NAC): 0.08 | Tumour weight (MDAY-2D tumor [2]; 0.25 mg BEOV twice a day + 2% NAC ip): 0.28 and 0.0 and 0.12 | Tumour weight, Average (MDAY-2D tumor [2]; 0.5 mg BEOV + 2% NAC): 0.03 | Tumour weight (MDAY-2D tumor [2]; 0.5 mg BEOV twice a day + 2% NAC ip): 0.1 and 0.0 | proliferation of cells, such as chondrocytes [3]: inhibit | IC50 (H460): 4.4 µM

N[C@@H](CCC(=O)N[C@@H](CS)C(=O)NCC(=O)O)C(=O)O [glutathione]
anticancer activity (carcinogenesis): anticancer activity

CC1=C(/C=C/C(C)=C/C=C/C(C)=C/C=C/C=C(C)/C=C/C=C(C)/C=C/C2=C(C)CCCC2(C)C)C(C)(C)CCC1 [β-carotene]
anticancer activity (carcinogenesis): anticancer activity

ammonium bis vanadate [ABOV]
Tumour weight (MDAY-2D tumor [4]; 0.1 mg ABOV twice a day + 2% NAC ip): 0.62 and 0.19 and 0.74 and 0.53 and 0.32 and 0.50 | Tumour weight (MDAY-2D tumor [4]; 0.25 mg ABOV twice a day + 2% NAC ip): 0.25 and 0.33 and 0.54 and 0.20 and 0.0 and 0.18 | Tumour weight (MDAY-2D tumor [4]; 0.5 mg ABOV twice a day + 2% NAC ip): 0.21 and 0.50 and 0.07 and 0.34 and 0.0 | death of animals (MDAY-2D tumor [4]; 0.75 mg ABOV twice a day + 2% NAC ip): died | death of animals (MDAY-2D tumor [4]; 1.0 mg ABOV twice a day + 2% NAC ip): died | inhibition of tumor growth (MDAY-2D tumor [4]; with NAC): inhibited the tumor growth | production of metalloproteases, such as collagenase (collagenase): inhibit | proliferation of cells, such as chondrocytes [3]: inhibit

n-tocopherol
anticancer activity (carcinogenesis): anticancer activity

vanadyl hydroperoxide
animal deaths (MDAY-D2 tumor; groups of five, 10 mg/ml, 50 μl daily s.c.): all five died | efficacy in reducing tumor growth (MDAY-D2 tumor; mouse, in vivo): too toxic to evaluate its efficacy | killing of MDAY-D2 cells (MDAY-D2 cells): equally effective

vitamin E
anticancer activity (carcinogenesis): anticancer activity
